Test results from ChEMBL document CHEMBL1149643, “Synthesis of novel bicyclo[4.1.0]heptane and bicyclo[3.1.0]hexane derivatives as melanin-concentrating hormone receptor R1 antagonists” (Bioorg Med Chem Lett, 2007).

Each compound was assayed on Mus musculus (assay: Ex vivo receptor occupancy at MCHR1 in mouse at 30 mg/kg, po).
Type: functional

Row | SMILES | inhibition in vivo at 30 mg/kg [%]
1 | C[C@@H]1CN(CCCN(C(=O)Nc2cc(Cl)nc(Cl)c2)[C@H]2CC[C@]3(c4cnc(CN)s4)C[C@H]23)[C@@H](C)CN1 | 16
2 | NCc1ncc(C2=CCC(N(CCN3CCCC3)C(=O)Nc3ccc(F)c(Cl)c3)CC2)s1 (configuration not stated) | 88
3 | C[C@@H]1CN(CCCN(C(=O)Nc2cc(Cl)nc(Cl)c2)[C@H]2CC[C@@]3(c4cnc(CN)s4)C[C@@H]23)[C@@H](C)CN1 | 20
4 | C[C@@H]1CN[C@@H](C)CN1CCCN(C(=O)Nc1cc(Cl)nc(Cl)c1)[C@H]1CC[C@]2(c3cnc(CN)s3)C[C@H]12 | 39
5 | C[C@@H]1CN[C@@H](C)CN1CCCN(C(=O)Nc1cc(Cl)nc(Cl)c1)[C@H]1CC[C@@]2(c3cnc(CN)s3)C[C@@H]12 | 26

What follows are compounds tested against hERG (KCNH2) (Homo sapiens, UniProt Q12809) (assay: Inhibition of hERG at 5 ug/ml by rubidium efflux assay).
Type: toxicity

Chain of hERG (KCNH2) (Q12809 whole entry): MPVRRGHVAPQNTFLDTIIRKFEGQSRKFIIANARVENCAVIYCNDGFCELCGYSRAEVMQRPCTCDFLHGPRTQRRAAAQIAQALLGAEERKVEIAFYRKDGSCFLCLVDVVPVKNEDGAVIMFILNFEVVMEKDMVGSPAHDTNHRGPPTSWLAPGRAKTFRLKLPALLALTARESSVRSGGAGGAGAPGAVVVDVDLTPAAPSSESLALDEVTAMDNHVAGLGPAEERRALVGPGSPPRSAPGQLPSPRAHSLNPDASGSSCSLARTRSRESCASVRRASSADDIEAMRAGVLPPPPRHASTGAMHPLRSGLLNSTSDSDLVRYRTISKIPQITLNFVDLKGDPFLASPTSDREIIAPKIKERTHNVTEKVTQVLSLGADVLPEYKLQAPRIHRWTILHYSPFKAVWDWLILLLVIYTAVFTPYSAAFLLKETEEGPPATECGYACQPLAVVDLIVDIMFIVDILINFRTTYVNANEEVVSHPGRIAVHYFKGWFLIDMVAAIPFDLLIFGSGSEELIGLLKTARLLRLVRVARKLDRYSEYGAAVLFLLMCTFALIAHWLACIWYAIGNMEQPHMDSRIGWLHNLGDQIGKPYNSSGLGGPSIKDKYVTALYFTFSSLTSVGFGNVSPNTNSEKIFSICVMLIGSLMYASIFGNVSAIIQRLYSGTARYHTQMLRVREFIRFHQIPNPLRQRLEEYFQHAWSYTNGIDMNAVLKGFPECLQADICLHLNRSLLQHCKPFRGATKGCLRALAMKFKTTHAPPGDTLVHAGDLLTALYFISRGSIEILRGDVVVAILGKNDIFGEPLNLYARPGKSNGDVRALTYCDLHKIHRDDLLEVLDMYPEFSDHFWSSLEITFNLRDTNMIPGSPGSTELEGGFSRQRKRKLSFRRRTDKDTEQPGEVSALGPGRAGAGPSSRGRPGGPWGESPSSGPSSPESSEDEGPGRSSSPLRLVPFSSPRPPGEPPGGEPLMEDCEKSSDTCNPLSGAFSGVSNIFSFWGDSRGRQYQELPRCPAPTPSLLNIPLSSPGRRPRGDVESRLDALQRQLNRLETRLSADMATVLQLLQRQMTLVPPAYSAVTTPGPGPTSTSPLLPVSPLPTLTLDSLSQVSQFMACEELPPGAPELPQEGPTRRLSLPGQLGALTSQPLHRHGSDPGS

Row | SMILES | inhibition at 5 ug/ml [%]
6 | N#Cc1cccc([C@]23CC[C@@H](N(CCN4CC[C@@H](O)C4)C(=O)Nc4ccc(F)c(Cl)c4)CC2C3)c1 (some centres not stated) | 80
7 | N#Cc1cccc([C@]23CC[C@@H](N(CCCN4CC[C@@H](O)C4)C(=O)Nc4ccc(F)c(Cl)c4)[C@H]2C3)c1 | 86
8 | NCc1ncc([C@]23CC[C@@H](N(CCN4CCCC4)C(=O)Nc4ccc(F)c(C(F)(F)F)c4)C2C3)s1 (some centres not stated) | 16
9 | NCc1ncc([C@]23CC[C@@H](N(CCN4CC[C@H](O)C4)C(=O)Nc4ccc(F)c(C(F)(F)F)c4)C2C3)s1 (some centres not stated) | 8
10 | NCc1ncc([C@]23CC[C@@H](N(CCCN4CC[C@H](O)C4)C(=O)Nc4ccc(F)c(C(F)(F)F)c4)C2C3)s1 (some centres not stated) | -4
11 | NCc1ncc([C@]23CC[C@@H](N(CCCN4CC[C@@H](O)C4)C(=O)Nc4ccc(F)c(C(F)(F)F)c4)C2C3)s1 (some centres not stated) | -4
12 | C[C@@H]1CN(CCCN(C(=O)Nc2cc(Cl)nc(Cl)c2)[C@@H]2CC[C@]3(c4cnc(CN)s4)CC23)[C@@H](C)CN1 (some centres not stated) | 3
13 | NCc1ncc([C@]23CC[C@@H](N(CCCN4CC5CC4CN5)C(=O)Nc4ccc(F)c(C(F)(F)F)c4)C2C3)s1 (some centres not stated) | 14
14 | NCc1ncc([C@]23CC[C@H](N(CCCN4CC[C@@H](O)C4)C(=O)Nc4ccc(F)c(C(F)(F)F)c4)[C@H]2C3)s1 | 8
15 | C[C@@H]1CN(CCCN(C(=O)Nc2cc(Cl)nc(Cl)c2)[C@H]2CC[C@]3(c4cnc(CN)s4)C[C@H]23)[C@@H](C)CN1 | -12
16 | NCc1ncc(C2=CCC(N(CCN3CCCC3)C(=O)Nc3ccc(F)c(Cl)c3)CC2)s1 (configuration not stated) | 10
17 | C[C@@H]1CN(CCCN(C(=O)Nc2cc(Cl)nc(Cl)c2)[C@H]2CC[C@@]3(c4cnc(CN)s4)C[C@@H]23)[C@@H](C)CN1 | -13
18 | C[C@@H]1CN[C@@H](C)CN1CCCN(C(=O)Nc1cc(Cl)nc(Cl)c1)[C@H]1CC[C@]2(c3cnc(CN)s3)C[C@H]12 | 22
19 | C[C@@H]1CN(CCCN(C(=O)Nc2ccc(F)c(C(F)(F)F)c2)[C@@H]2CC[C@]3(c4cnc(CN)s4)CC23)[C@@H](C)CN1 (some centres not stated) | -8
20 | NCc1cnc([C@]23CC[C@@H](N(CCN4CCCC4)C(=O)Nc4ccc(F)c(C(F)(F)F)c4)CC2C3)s1 (some centres not stated) | 19
21 | NCc1ncc([C@@]23CC[C@H](N(CCCN4CC[C@@H](O)C4)C(=O)Nc4ccc(F)c(C(F)(F)F)c4)[C@@H]2C3)s1 | 6
22 | C[C@@H]1CN[C@@H](C)CN1CCCN(C(=O)Nc1cc(Cl)nc(Cl)c1)[C@H]1CC[C@@]2(c3cnc(CN)s3)C[C@@H]12 | 17

What follows are compounds tested against Melanin-concentrating hormone receptor 1 (Homo sapiens, UniProt Q99705) (assay: Antagonist activity at MCHR1).
Type: functional

Chain of Melanin-concentrating hormone receptor 1 (Q99705 whole entry): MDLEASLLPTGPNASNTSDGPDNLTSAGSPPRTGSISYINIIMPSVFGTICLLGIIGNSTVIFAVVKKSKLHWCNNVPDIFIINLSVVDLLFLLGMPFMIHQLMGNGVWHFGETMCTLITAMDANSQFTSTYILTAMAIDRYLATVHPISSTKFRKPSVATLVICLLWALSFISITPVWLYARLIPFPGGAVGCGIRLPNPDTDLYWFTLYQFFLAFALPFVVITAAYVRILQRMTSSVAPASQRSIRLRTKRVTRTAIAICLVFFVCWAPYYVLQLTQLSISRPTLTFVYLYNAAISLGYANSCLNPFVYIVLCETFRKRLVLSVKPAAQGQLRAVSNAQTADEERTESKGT

Row | Ki [nM] | SMILES
23 | 22 | N#Cc1cccc([C@]23CC[C@@H](N(CCCN4CC[C@@H](O)C4)C(=O)Nc4ccc(F)c(Cl)c4)[C@H]2C3)c1
24 | 107 | NCc1ncc([C@]23CC[C@@H](N(CCN4CCCC4)C(=O)Nc4ccc(F)c(C(F)(F)F)c4)C2C3)s1 (some centres not stated)
25 | 99 | NCc1ncc([C@]23CC[C@@H](N(CCN4CC[C@H](O)C4)C(=O)Nc4ccc(F)c(C(F)(F)F)c4)C2C3)s1 (some centres not stated)
26 | 45 | NCc1ncc([C@]23CC[C@@H](N(CCCN4CC[C@H](O)C4)C(=O)Nc4ccc(F)c(C(F)(F)F)c4)C2C3)s1 (some centres not stated)
27 | 17 | NCc1ncc([C@]23CC[C@@H](N(CCCN4CC[C@@H](O)C4)C(=O)Nc4ccc(F)c(C(F)(F)F)c4)C2C3)s1 (some centres not stated)
28 | 13.1 | C[C@@H]1CN(CCCN(C(=O)Nc2cc(Cl)nc(Cl)c2)[C@@H]2CC[C@]3(c4cnc(CN)s4)CC23)[C@@H](C)CN1 (some centres not stated)
29 | 73 | NCc1ncc([C@]23CC[C@@H](N(CCCN4CC5CC4CN5)C(=O)Nc4ccc(F)c(C(F)(F)F)c4)C2C3)s1 (some centres not stated)
30 | 6.6 | NCc1ncc([C@]23CC[C@H](N(CCCN4CC[C@@H](O)C4)C(=O)Nc4ccc(F)c(C(F)(F)F)c4)[C@H]2C3)s1
31 | 6.1 | C[C@@H]1CN(CCCN(C(=O)Nc2cc(Cl)nc(Cl)c2)[C@H]2CC[C@]3(c4cnc(CN)s4)C[C@H]23)[C@@H](C)CN1
32 | 117 | C[C@@H]1CN(CCCN(C(=O)Nc2cc(Cl)nc(Cl)c2)[C@H]2CC[C@@]3(c4cnc(CN)s4)C[C@@H]23)[C@@H](C)CN1
33 | 4 | C[C@@H]1CN[C@@H](C)CN1CCCN(C(=O)Nc1cc(Cl)nc(Cl)c1)[C@H]1CC[C@]2(c3cnc(CN)s3)C[C@H]12
34 | 19 | C[C@@H]1CN(CCCN(C(=O)Nc2ccc(F)c(C(F)(F)F)c2)[C@@H]2CC[C@]3(c4cnc(CN)s4)CC23)[C@@H](C)CN1 (some centres not stated)
35 | 431 | NCc1cnc([C@]23CC[C@@H](N(CCN4CCCC4)C(=O)Nc4ccc(F)c(C(F)(F)F)c4)CC2C3)s1 (some centres not stated)
36 | 167 | NCc1ncc([C@@]23CC[C@H](N(CCCN4CC[C@@H](O)C4)C(=O)Nc4ccc(F)c(C(F)(F)F)c4)[C@@H]2C3)s1
37 | 171 | C[C@@H]1CN[C@@H](C)CN1CCCN(C(=O)Nc1cc(Cl)nc(Cl)c1)[C@H]1CC[C@@]2(c3cnc(CN)s3)C[C@@H]12
